Experimental data taken from article PMC8746705, “Comparison of Experimental Strategies to Study L-Type Amino Acid Transporter 1 (LAT1) Utilization by Ligands” (Molecules, 2021).

Columns and labels:
LAT1 [1] = target: T1, LAT1 (Mus musculus, UniProt Q9Z127); test: Cis-inhibition of radiolabelled LAT1-probe substrate uptake into BV2 cells; format: cell-based; conditions: for IC50: 5 min, mean ± SD; for Inhibition of LAT1-probe substrate uptake / LAT1 affinity: over all probe substrates
Outline: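 Mouse BV2 cells preincubated 10 min at 37 °C in choline-based HBSS pH 7.4, then 5 min uptake of [14C]-L-leucine (0.2 µCi/mL) or [3H]-methionine, -tryptophan or -kynurenine (2 µCi/mL) with 0.1–1000 μM compound. Cell radioactivity counted by liquid scintillation after lysis. IC50 by nonlinear regression.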

LAT1 [2] = target: T1, LAT1; test: Concentration-dependent cellular uptake into BV2 cells, Eadie–Hofstee analysis, Transport Type 1 (LAT1); format: cell-based; conditions: for Km / Transport Type 1 (LAT1) Vmax: 1–200 µM, 30 min, BV2, Eadie–Hofstee, mean ± SD, n = 3; for Cellular uptake: BV2 cells
Outline: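 Mouse BV2 microglia incubated 30 min at 37 °C in HBSS with compounds at 1–200 μM. Intracellular compound quantified by LC-MS/MS (positive ESI, C18 column) and normalized to total protein. Transport components resolved from Michaelis-Menten kinetics by Eadie–Hofstee analysis.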

LAT1 [3] = target: T1, LAT1; test: Cellular uptake of compounds in the presence of LAT1-inhibitor (KMH-233); format: cell-based; conditions: 100 µM compound, 100 µM KMH-233, 30 min, BV2
Outline: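 Cells were pre-exposed 10 min to 100 µM KMH-233, then incubated 30 min in HBSS with 100 µM compound plus inhibitor. Intracellular compound was quantified by LC-MS against a spiked standard curve and normalised to protein.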

Transport Type 2 = test: Concentration-dependent cellular uptake into BV2 cells, Eadie–Hofstee analysis, Transport Type 2; format: cell-based, mouse; conditions: 1–200 µM, 30 min, mean ± SD, n = 3
Description: For the concentration-dependent cellular uptake experiments, the BV2 cells on 24-well plates were incubated with studied compounds (1–200 μM) in pre-warmed HBSS buffer (250 μL) at 37 °C for 30 min. The experiment was then carried out as described for the time-dependent uptake above and the concentration of studied compounds in the cell lysate was analyzed by the LC-MS/MS methods described above and the results were normalized to the total protein concentration. The distinct transport mechanisms were separated from the Michaelis-Menten kinetics by using Eadie–Hofstee plot.
The studied compounds (1–15) were analyzed by using Agilent 1200 Series Rapid Resolution LC System together with an Agilent 6410 Triple Quadrupole Mass Spectrometer equipped with an electrospray ionization source (Agilent Technologies, Santa Clara, CA, USA). The chromatographic separations of analytes were achieved by using a reversed-phase Zobrax SB-C18 column (50 mm × 2.1 mm, 1.8 μm; Agilent Technologies, Santa Clara, CA, USA) by eluting the samples with 0.1% formic acid in water (A) and 0.1% formic in ACN (B). Labetalol and diclofenac were used as internal standards (ISTD) for the prodrugs and parent drugs, respectively. The transitions used for the quantification at the positive ion mode and chromatographic conditions of each compound and their parent drugs are listed in Table S1. The methods of compounds 1–11 have been reported earlier, while the methods of compounds 12–15 are reported herein for the first time.

[4] = system: immortalized mouse microglia (BV2); test: Time-dependent cellular uptake of compounds into BV2 cells (LC-MS/MS); format: cell-based; conditions: for Max. cellular uptake: 100 µM compound, 1–60 min, mean ± SD, n = 3
Outline: (§1)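 BV2 cells were incubated with 100 μM compound in HBSS at 37 °C for 1–60 min, washed ice-cold and lysed in 0.1 M NaOH. Intracellular compound was quantified by positive-mode ESI LC-MS/MS against internal-standard calibration curves and normalised to Bradford protein content.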

[5] = as above; format: cell-based, mouse; conditions: mouse, BV2 microglia cells, 100 µM compound, 1–60 min, mean ± SD, n = 3, read-out: T½ of cellular uptake
Outline: as §1

LAT1 [6] = target: T1, LAT1; test: Inhibition type of [14C]-L-Leu uptake (Hanes-Woolf plots) in BV2 cells; format: cell-based; conditions: for Vmax of [14C]-L-Leu uptake: 0.010–0.20 µM [14C]-L-Leu in the presence of the compound at its IC50, mean ± SD, n = 3–4; for Vmax of [14C]-L-Leu uptake / Inhibition Type: BV2; for IC50: Table 2, compound concentration used in the inhibition type study, corresponding to IC50 of [14C]-L-Leu uptake; for Inhibition Type: of [14C]-L-Leu uptake, concluded from Km and Vmax
Outline: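 BV2 cells preincubated 10 min at 37 °C in Na+-free choline HBSS (pH 7.4), then exposed to 0.010–0.20 μM [14C]-L-leucine plus compound at IC50-guided concentration; uptake counted by liquid scintillation. Km and Vmax derived by linear regression of Hanes-Woolf plots ([S]/v vs substrate).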

[7] = probe [3H]-L-Kynu, n = 3–4, read-out: IC50 of [3H]-L-Kynu uptake
[8] = probe [3H]-L-Met, n = 3–4, read-out: IC50 of [3H]-L-Met uptake
[9] = probe [3H]-L-Trp, n = 3–4, read-out: IC50 of [3H]-L-Trp uptake
[10] = probe [14C]-L-Leu, n = 3–4, read-out: IC50 of [14C]-L-Leu uptake

T1 sequence (Q9Z127 whole entry): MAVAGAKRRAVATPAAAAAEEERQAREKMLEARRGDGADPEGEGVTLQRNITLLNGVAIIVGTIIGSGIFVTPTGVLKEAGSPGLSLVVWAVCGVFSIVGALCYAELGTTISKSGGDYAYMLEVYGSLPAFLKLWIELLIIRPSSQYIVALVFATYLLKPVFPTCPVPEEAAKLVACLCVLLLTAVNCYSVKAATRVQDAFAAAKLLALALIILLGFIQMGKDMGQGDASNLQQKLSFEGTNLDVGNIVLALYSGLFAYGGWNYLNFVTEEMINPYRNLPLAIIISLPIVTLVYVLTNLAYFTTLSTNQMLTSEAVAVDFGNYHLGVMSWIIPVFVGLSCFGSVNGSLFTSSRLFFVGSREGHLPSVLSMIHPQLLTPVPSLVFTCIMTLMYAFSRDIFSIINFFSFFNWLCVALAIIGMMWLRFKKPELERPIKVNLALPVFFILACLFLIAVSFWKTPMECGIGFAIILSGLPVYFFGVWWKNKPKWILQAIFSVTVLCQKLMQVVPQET
T1 sequence (P10852 whole entry partner): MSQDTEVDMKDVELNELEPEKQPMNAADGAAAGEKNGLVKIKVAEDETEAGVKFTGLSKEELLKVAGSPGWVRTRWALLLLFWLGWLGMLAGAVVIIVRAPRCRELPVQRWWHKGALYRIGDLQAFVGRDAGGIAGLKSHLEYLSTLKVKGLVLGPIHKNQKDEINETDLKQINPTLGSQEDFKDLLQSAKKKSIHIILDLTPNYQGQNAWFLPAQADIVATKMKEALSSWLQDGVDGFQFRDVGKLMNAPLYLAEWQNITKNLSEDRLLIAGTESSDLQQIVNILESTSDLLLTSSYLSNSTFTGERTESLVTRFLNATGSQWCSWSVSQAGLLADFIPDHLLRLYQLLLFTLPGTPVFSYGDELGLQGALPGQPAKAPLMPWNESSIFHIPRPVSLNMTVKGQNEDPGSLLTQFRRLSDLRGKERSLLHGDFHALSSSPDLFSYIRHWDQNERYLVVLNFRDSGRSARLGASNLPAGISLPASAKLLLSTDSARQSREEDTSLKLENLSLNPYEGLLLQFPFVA

| Compound | IC50 (LAT1 [1]; [7]) | IC50 (LAT1 [1]; [8]) | IC50 (LAT1 [1]; [9]) | IC50 (LAT1 [1]; [10]) | Km (LAT1 [2]) | Transport Type 1 (LAT1) Vmax (LAT1 [2]) | Cellular uptake (LAT1 [2]) | Cellular uptake in the presence of LAT1-inhibitor (LAT1 [3]) | half-life at 100 μM [5] | Vmax of [14C]-L-Leu uptake (LAT1 [6]) | IC50 (LAT1 [6]) | Inhibition Type (LAT1 [6]) | Km (Transport Type 2) | Transport Type 2 Vmax (Transport Type 2) | Max. cellular uptake [4] | Inhibition of LAT1-probe substrate uptake / LAT1 affinity (LAT1 [1]) | LAT1-substrate or LAT1-binder ([4]; concluded from time-dependent uptake, 100 µM) |
| --- | --- | --- | --- | --- | --- | --- | --- | --- | --- | --- | --- | --- | --- | --- | --- | --- | --- |
| NC(Cc1cccc(C(=O)Oc2ccc(-c3ccc(-c4ccc5c(c4)COC5=O)s3)cc2)c1)C(=O)O (stereo not shown) [Compound 1] | 0.7 ± 0.1 µM | 8.2 ± 1.7 µM | 6.7 ± 1.6 µM | 6.8 ± 1.4 µM | 116 ± 72 µM | 750 ± 435 pmol/mg/min | highest cellular uptake | inhibited significantly | 9.11 ± 1.52 min | 1.792 ± 0.106 nmol/min/mg | 7 µM | Mixed type | 347 ± 26 µM | 5067 ± 327 pmol/mg/min | 176.0 ± 9.0 nmol/mg of protein | – | – |
| C[C@H](C(=O)Nc1cccc(C[C@H](N)C(=O)O)c1)c1ccc(-c2ccccc2)c(F)c1 [Compound 9] | 4.7 ± 1.2 µM | 1.7 ± 1.8 µM | 15.9 ± 7.8 µM | – | – | – | – | inhibited significantly | > 300 min | 2.422 ± 0.061 nmol/min/mg | 6 µM | Non-competitive | – | – | 101.6 ± 86.1 nmol/mg of protein | – | – |
| COc1cc(/C=C/C(=O)Oc2cccc(C[C@H](N)C(=O)O)c2)ccc1O [Compound 7] | 96.8 ± 1.2 µM | 13.6 ± 1.8 µM | 19.8 ± 1.3 µM | 37.6 ± 1.8 µM | 0.3 ± 0.1 µM | 0.09 ± 0.03 pmol/mg/min | – | inhibited significantly | 7.35 ± 3.44 min | 2.780 ± 0.126 nmol/min/mg | 38 µM | Mixed type | 62 ± 14 µM | 0.21 ± 0.02 pmol/mg/min | 21.14 ± 2.93 nmol/mg of protein | – | – |
| N[C@@H](Cc1cccc(NC(=O)c2ccccc2O)c1)C(=O)O [Compound 8] | 18.1 ± 1.2 µM | 12 ± 1.4 µM | 24.5 ± 2 µM | – | – | – | – | inhibited significantly | 2.65 ± 0.6 min | 1.644 ± 0.073 nmol/min/mg | 19 µM | Un-competitive | 41 ± 5 µM | 185 ± 10 pmol/mg/min | 8.05 ± 0.40 nmol/mg of protein | not able to inhibit the LAT1-probe substrate uptake very effectively | – |
| C[C@H](C(=O)Oc1cccc(C[C@H](N)C(=O)O)c1)c1cccc(C(=O)c2ccccc2)c1 [Compound 4] | 35.3 ± 1.2 µM | 26.1 ± 1.4 µM | 38.8 ± 3.1 µM | 15 ± 1.3 µM | 41 ± 6 µM | 88 ± 9 pmol/mg/min | effectively transported into the cells | inhibited significantly | 1.86 ± 0.42 min | 1.599 ± 0.170 nmol/min/mg | 15 µM | Non-competitive | 159 ± 45 µM | 231 ± 40 pmol/mg/min | 4.17 ± 0.19 nmol/mg of protein | – | – |
| C[C@H](C(=O)Oc1cccc(C[C@H](N)C(=O)O)c1)c1ccc(-c2ccccc2)c(F)c1 [Compound 12] | 3 ± 1.5 µM | 4.3 ± 1.7 µM | 6.3 ± 1.3 µM | – | – | – | – | inhibited significantly | 19.2 ± 5.71 min | 1.513 ± 0.218 nmol/min/mg | 4 µM | Mixed type | – | – | 36.12 ± 4.17 nmol/mg of protein | – | – |

Now from value to compound, other results behind:

| IC50 (LAT1 [1]; [7]) | IC50 (LAT1 [1]; [8]) | IC50 (LAT1 [1]; [9]) | IC50 (LAT1 [1]; [10]) | Km (LAT1 [2]) | Transport Type 1 (LAT1) Vmax (LAT1 [2]) | Cellular uptake (LAT1 [2]) | Cellular uptake in the presence of LAT1-inhibitor (LAT1 [3]) | half-life at 100 μM [5] | Vmax of [14C]-L-Leu uptake (LAT1 [6]) | IC50 (LAT1 [6]) | Inhibition Type (LAT1 [6]) | Compound | Km (Transport Type 2) | Transport Type 2 Vmax (Transport Type 2) | Max. cellular uptake [4] | Inhibition of LAT1-probe substrate uptake / LAT1 affinity (LAT1 [1]) | LAT1-substrate or LAT1-binder ([4]; concluded from time-dependent uptake, 100 µM) |
| --- | --- | --- | --- | --- | --- | --- | --- | --- | --- | --- | --- | --- | --- | --- | --- | --- | --- |
| 4.3 ± 1.3 µM | 3.3 ± 1.5 µM | 9.9 ± 1.3 µM | 2.8 ± 1.5 µM | 0.8 ± 0.1 µM | 0.09 ± 0.01 pmol/mg/min | – | inhibited significantly | 1.97 ± 0.66 min | 2.759 ± 0.066 nmol/min/mg | 3 µM | Mixed type | C[C@H](C(=O)Nc1cccc(C[C@H](N)C(=O)O)c1)c1cccc(C(=O)c2ccccc2)c1 [Compound 2] | 199 ± 50 µM | 0.88 ± 0.16 pmol/mg/min | 22.31 ± 1.34 nmol/mg of protein | – | – |
| 3.1 ± 1.3 µM | 25.3 ± 1.6 µM | 11.1 ± 1.2 µM | – | 9.3 ± 2.7 µM | 280 ± 65 pmol/mg/min | highest cellular uptake | inhibited significantly | 12.5 ± 3.62 min | 1.448 ± 0.099 nmol/min/mg | 10 µM | Non-competitive | COc1ccc2cc([C@H](C)C(=O)Oc3cccc(C[C@H](N)C(=O)O)c3)ccc2c1 [Compound 15] | – | – | 29.09 ± 2.84 nmol/mg of protein | – | – |
| 43.3 ± 1.1 µM | > 100 µM | > 100 µM | > 100 µM | 2.1 ± 0.4 µM | 0.11 ± 0.01 pmol/mg/min | – | only reductive trends were seen | < 1 min | 1.910 ± 0.057 nmol/min/mg | – | Un-competitive | COc1cc(C=CC(=O)NCc2cccc(CC(N)C(=O)O)c2)ccc1O (stereo not shown) [Compound 5] | 77 ± 13 µM | 0.27 ± 0.02 pmol/mg/min | cannot be calculated | not able to inhibit the LAT1-probe substrate uptake very effectively | LAT1-binders rather than substrates |
